Source: publication PMC8311653, “Design, Synthesis, In Vitro and In Vivo Characterization of Selective NKCC1 Inhibitors for the Treatment of Core Symptoms in Down Syndrome” (Journal of Medicinal Chemistry, 2021)

Legend:
[1] = target: T1, NKCC1 (Mus musculus, UniProt P55012); assay: Ca2+ influx assay in immature primary neuronal cultures (indirect measure of NKCC1 inhibition); format: cell-based
T1 construct: primary neuronal cultures of dissociated hippocampal neurons were prepared from E18 C57BL/6J mice; endogenous in cells; host or cells: primary hippocampal neurons from E18 C57BL/6J mice, 3 DIV
T1 sequence (P55012 1-1205): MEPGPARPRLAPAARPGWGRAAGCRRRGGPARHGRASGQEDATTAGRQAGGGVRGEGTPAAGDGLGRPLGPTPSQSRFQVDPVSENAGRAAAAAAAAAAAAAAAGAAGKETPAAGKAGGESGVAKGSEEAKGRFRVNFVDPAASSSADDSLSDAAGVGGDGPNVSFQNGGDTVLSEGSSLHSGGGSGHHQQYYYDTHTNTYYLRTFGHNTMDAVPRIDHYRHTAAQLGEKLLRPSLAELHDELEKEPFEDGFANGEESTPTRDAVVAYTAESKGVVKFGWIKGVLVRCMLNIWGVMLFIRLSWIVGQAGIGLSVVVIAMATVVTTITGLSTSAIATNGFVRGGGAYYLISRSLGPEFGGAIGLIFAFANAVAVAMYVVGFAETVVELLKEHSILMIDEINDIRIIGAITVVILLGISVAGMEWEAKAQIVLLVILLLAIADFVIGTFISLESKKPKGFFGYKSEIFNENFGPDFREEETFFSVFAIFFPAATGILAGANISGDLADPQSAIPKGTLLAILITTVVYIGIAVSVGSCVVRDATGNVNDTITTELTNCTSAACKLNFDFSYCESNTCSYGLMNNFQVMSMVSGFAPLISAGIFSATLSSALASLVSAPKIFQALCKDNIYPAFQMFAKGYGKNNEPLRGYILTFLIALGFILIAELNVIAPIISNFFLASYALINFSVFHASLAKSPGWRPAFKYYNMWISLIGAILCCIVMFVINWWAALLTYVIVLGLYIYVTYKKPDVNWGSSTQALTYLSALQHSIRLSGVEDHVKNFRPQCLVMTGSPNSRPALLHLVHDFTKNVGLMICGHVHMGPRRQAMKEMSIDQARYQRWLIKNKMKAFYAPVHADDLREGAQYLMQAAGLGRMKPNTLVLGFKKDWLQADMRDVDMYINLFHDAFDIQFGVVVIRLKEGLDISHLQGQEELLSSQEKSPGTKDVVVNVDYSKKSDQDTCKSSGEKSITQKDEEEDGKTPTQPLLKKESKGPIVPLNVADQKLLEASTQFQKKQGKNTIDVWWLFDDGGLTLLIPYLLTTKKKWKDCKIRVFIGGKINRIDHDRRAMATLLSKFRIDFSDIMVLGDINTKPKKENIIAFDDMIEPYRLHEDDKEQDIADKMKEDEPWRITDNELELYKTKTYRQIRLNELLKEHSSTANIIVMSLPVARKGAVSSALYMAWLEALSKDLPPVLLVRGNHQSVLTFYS
Experimental: To perform the Ca^2+-influx assay, primary neuronal cultures of dissociated hippocampal neurons were prepared from E18 C57BL/6J mice (Charles River) as previously described[56] and plated in 96-well black-walled, clear-bottomed plates coated with poly-L-lysine (Sigma; 0.1 mg/mL in 100 mM borate buffer, pH 8.5) at a density of 30,000 cells per well. Neurons were maintained in neurobasal medium supplemented with 2% B-27 supplement, 0.5 mM glutamine, 50 U/mL of penicillin, and 50 μg/mL of streptomycin (all from Gibco). The cells were incubated at 37 °C and 5% CO2 until DIV 3 for the Ca^2+ influx assay.
At 3 DIVs, neurons were loaded with 2.5 μM of the Ca^2+-sensitive day Fluo4-AM (Invitrogen) in extracellular solution (145 mM NaCl, 5 mM KCl, 10 mM HEPES, 5.55 mM glucose, 1 mM MgCl2, and 2 mM CaCl2, pH 7.4). After 15 min, cells were washed twice with extracellular solutions and treated with bumetanide (as a positive control), DMSO (as a negative control), or each of our compounds at 10 μM or 100 μM, in extracellular solution for 15 min. Plates were then loaded onto a Spark (Tecan) multiplate reader equipped with an automatic liquid injector system, and Fluo4 fluorescence was recorded with excitation at 485 nm and emission at 535 nm. For each well, fluorescence was first recorded for 20 s of the baseline and for 20 s after delivery of GABA (100 μM). To evaluate neuronal viability, fluorescence was recorded for an additional 20 s after delivery of a depolarizing KCl stimulus (90 mM final concentration in wells). To represent the fluorescent traces in time, we normalized the fluorescence value for each time point to the average of the fluorescence value for the first 20 s of the baseline (ΔF/F0). To quantify the average effects as represented by the bar plots, we measured the maximum peak increase in ΔF/F0 fluorescence upon GABA application normalized over the maximum peak increase in ΔF/F0 fluorescence upon KCl application. We then presented in the figures all the data as a percentage of the fluorescence increase versus the value of the control DMSO.

[2] = In vitro metabolic stability in mouse liver microsomes; conditions: tissue homogenate, pH 7.4
In short: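 Compound incubated in mouse liver microsomes in 0.1M Tris-HCl pH 7.4 with 10% DMSO; after pre-incubation NADPH, G6P, G6PDH and MgCl2 added, then 37 °C for 1h, sampled at 0, 5, 15, 30, 60 min.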

[3] = Aqueous kinetic solubility in PBS pH 7.4; format: physicochemical; conditions: aqueous kinetic solubility from 10 mM DMSO solution in PBS pH 7.4, target concentration 250 μM (final DMSO 2.5%)
Experimental: 1. Aqueous kinetic solubility.
30 µL aliquots of 10 mM DMSO stock solution of the test compound were incubated in Phosphate
Buffered Saline (PBS) at pH 7.4 at 25°C for 24h. After centrifugation the dissolved compound in the
supernatant was quantified by LC-MS/MS.
Aqueous kinetic solubility was determined by UV quantification at
215 nm. […]

[4] = 100 μM, cultured neurons, 3 DIV
[5] = phosphate buffered saline (PBS)

## CN(C)S(=O)(=O)c1cc(C(=O)O)ccc1NCCCCCCCC(F)(F)F [Compound 1, 3-(-N,N-Dimethylsulfamoyl)-4-(8,8,8-trifluorooctylamino)benzoic Acid]
[1]; cultured neurons, 3 DIV
  inhibition at 10 µM: 45.7 ± 4.3%
[1]; [4]
  inhibition at 100 µM: 92.8 ± 1.9%
[2]
  half-life at 5 μM: > 60 min
[3]; [5]
  solubility at 24 h: > 250 µM

## CN(C)S(=O)(=O)c1cc(C(=O)O)c(O)cc1NCCCCCCCC(F)(F)F [Compound 40, 5-(N,N-Dimethylsulfamoyl)-2-hydroxy-4-((8,8,8-trifluorooctyl)amino)benzoic Acid]
[1]; cultured neurons, 3 DIV
  inhibition at 10 µM: 13.9 ± 2%
[1]; [4]
  Inhibition 100 μM Ca2+ influx (%): 51.9 ± 4.0%
  inhibition at 100 µM: 51.8 ± 4%
[1]; neuronal cultures, Figures 4A and S2
  inhibition of NKCC1 in the Ca2+ influx assay (dose dependence): significant dose-dependent inhibition
[2]
  half-life at 5 μM: > 60 min
[3]; [5]
  solubility at 24 h: > 250 µM

## CCCCNc1cc(C(=O)O)cc(S(N)(=O)=O)c1Oc1ccccc1 [bumetanide, reference compound]
[1]; cultured neurons, 3 DIV
  inhibition at 10 µM: 51.9 ± 2.3%
[1]; [4]
  inhibition at 100 µM: 54.7 ± 2.5%
[2]
  half-life at 5 μM: > 60 min
[3]
  solubility at 24 h: > 250 µM
